Consider 3 molecules from patent publication US20050008607A1, “Composition containing a carbonyl amine” (priority 2003, published 2005).

“Also recorded” adds a separate entry of the source.

For assay [1], the system named is human striated muscle cells innervated with explants of spinal cord and of spinal ganglia from rat embryos. It is filed as cell-based.
In a further assay the test system is wrinkles. The following applies: in vivo; cited from earlier work.

botulinum toxin: in assay [1], the “blocking effect on contractions” value is given as “blocking effect which is much weaker; also recorded: complete”, the “blocking of the contractions” value is reported as “completely blocks the contractions” and the “frequency of the contractions” value is “greatly decreases the frequency of the contractions”.

Take `CN1C(=O)CN=C(c2ccccc2)c2cc(Cl)ccc21` [diazepam, reference compound]: in assay [1], the muscle fibre contractions result is recorded as “inhibited muscle fibre contractions”. Further, the anti-wrinkle activity result in the assay with wrinkles is given as “demonstrated in vivo”.

For `CCCCCC(=O)CCN(CC)CCCc1ccccc1` [Compound (4)], in assay [1] (100 μM, incubated for 60 seconds, contractions counted over 30 seconds), the “contractions of three muscle fibres” value is “blocks the contractions”.
